Experimental data from patent US10918891B2, “Cosmetic treatment method for the skin” (SYNTIVIA, priority 2016, dated 2021).

Tests used:
[1] = system: normal human Fibroblasts (NHDF); test: Cellular viability test with cadmium on NHDF; type: cell-based; details: pretreatment 24 h and treatment 24 h with (Ia) 10 ppm, Cd 3 ppm, read at 450 nm, CTL (Cd 3 ppm) 0.95
Protocol: The cells used for this example are normal human Fibroblasts (NHDF).
A cellular viability test with cadmium is carried out in order to know the protective effect of the compound (Ia) against polluting stress. Cadmium (Cd) is a toxic and ecotoxic heavy metal found in the environment.
The cells are cultured at the concentration of 7000 cells per well of 96-well plates.
The pretreatment is carried out 24 hours after the inoculation of the cells with the compound (Ia) at 10 ppm in an aqueous solution with 0.1% dimethylsulfoxide, or without compound (Ia) for 24 hours.
After the pretreatment, a treatment with cadmium is carried out. The cells are placed in the presence of cadmium at 3 ppm+compound (Ia) at 10 ppm, or only in the presence of cadmium at 3 ppm (CTL) for 24 hours at 37° C., 5% CO2. The control without stress (CTL without stress) corresponds to the cells not having undergone a treatment with cadmium.

[2] = system: NativeSkin® skin explants (Genoskin); test: Histological analysis (haematoxylin/eosin) of NativeSkin skin explant ex vivo after UVA irradiation; type: cell-based, human; details: composition 0.9 mmol/L topical, 60 J/cm^2 UVA every day for 3 days, FIG. 5
Protocol: The test was carried out on NativeSkin® skin explants (Genoskin), a biopsy of skin bathed in a solid, nourishing matrix while its epidermal surface is preserved in contact with the air. The biopsy is firmly anchored in the matrix and sealed in order to prevent any lateral diffusion of formulation intended for topical application.
The study was carried out on a donor (phototype 2) under the following conditions.
The compounds tested are implemented in a composition containing them at 0.9 mmol/L in a mixture of Carbopol® (0.5% p/p), DMSO (0.1% p/p) and H2O (qsp 100%).
The samples are irradiated at 60 J/cm^2 UVA every day for 3 days. A treatment is carried out for 24 h before the irradiation, by application of the composition tested onto the sample (deposition of 40 μl of composition onto the stratum corneum), then a post-treatment of 24 h after the irradiation, in the same manner.
A Control of the sample of skin non-irradiated and a Control of the sample of skin irradiated are also carried out, both with application of the vehicle alone (0.5% Carbopol®, 0.1% DMSO, H2O). The Control of the non-irradiated sample of skin is introduced into the irradiator in a sheet of aluminium, in such a way as to protect it against UVs.
The samples are sampled, cut (according to the conventional method of cryo-sectioning implementing paraffin and freezing) and fixed in 1 ml of formalin for 24 h.
The explants are then included in paraffin and sections of 5 μm are made.
The slides are then coloured with haematoxylin (basic compound marking the nuclei) and eosin (acidic compound marking the conjunctive tissue).
The analysis of the marking is carried out with a DM5000B fluorescence microscope (Leica Microsystems) and 10 images are acquired for each sample.

[3] = system: NHEK cells; test: Cellular viability (WST1) of NHEK exposed to cigarette extract; type: cell-based, human; details: (Ia) 10 ppm pretreatment 24 h and treatment 24 h; cigarette extract diluted 1/50; WST1, 450 nm; Control 2.070, Cigarette extract 1.392
Protocol: The cells used for this example are normal human Fibroblasts (NHDF) and normal human epidermal Keratinocytes (NHEK).
A cigarette extract is prepared using a laboratory device allowing the sucking up of cigarette smoke via a suction system, and the controlled bubbling of this cigarette smoke into the solution studied, which is then filtered on a 0.22 μm filter made of Polyether sulfone (PES).
The cells are cultured at the concentration of 7000 cells per well of 96-well plates (NHDF) or 8000 cells per well (NHEK), in the presence of standard culture medium for NHDF or NHEK (for 24 h 37° C., 5% CO2).
After pretreatment of the cells with the compound (Ia) at 10 ppm for 24 h the cells are treated with the cigarette extract diluted to 1/50th in the culture medium with or without the compound (Ia) at 10 ppm for 24 h. The absorbance is read a first time at […] (Multiskan®).
Then, 10 μl of WST1 (Roche) are introduced into the medium and the cells are incubated for 3 hours.
The absorbance at 450 nm is measured after the addition of WST1 (Multiskan®) and the results obtained, in terms of cellular viability, are shown in tables 11 and 12 below. The treated cells (Cigarette extract+(Ia)) are compared to the untreated cells (Control) or to the cells having only undergone exposure to the cigarette extract (Cigarette extract).

[4] = system: normal human Keratinocytes (NHEK); test: Reactive oxygen species (H2DCFDA probe) in NHEK after single UVA stress; type: cell-based
Protocol: The cells used for this example are normal human Keratinocytes (NHEK).
The antioxidant properties (neutralising the production of reactive oxygen species) of the compound (Ia) are evaluated after a single stress with UVAs on NHEKs, by a test based on the use of the fluorescent probe H2DCFDA on a triple culture.
H2DCFDA (2′-7′dichlorodihydrofluorescein diacetate, Fischer Scientific) is a probe that, after having diffused into the cell and after its acetate group has been split by intracellular esterases, can be oxidised by free radicals (H2O2) into DCF (2′-7′ dichlorofluorescein), a fluorescent compound. The production of the free radicals can thus be quantified by the level of fluorescence emitted by the oxidised probe. The more the cell produces free radicals, the higher the level of fluorescence detected.
After 24 hours of incubation with the compound (Ia) (3 ppm in an aqueous solution with 0.1% dimethylsulfoxide) or the reference elements, the cells are placed in the presence of the H2DCFDA probe at 3 ppm for 1 hour at 37° C., 5% CO2 in order to allow its intracellular diffusion.
The reference antioxidant elements are: Trolox ([…], Sigma), at 20 ppm and Quercetin (quercetin dihydrate, Sigma), at 18 ppm.
After one rinsing, the cells are subjected to a single stress with UVAs (in the absence of compound (Ia)) at a rate of 10 joules per square centimetre. The quantification of the fluorescence emitted (excitation: 485 nm; emission: 520 nm) is carried out immediately after the end of the UVA stress. […]
In order to provide a result representative of the cellular population of each condition after a single stress with UVAs, a cellular viability test (MTS) is carried out immediately after the quantification of the fluorescence emitted. The fluorescence values are thus normalised with respect to the cellular viabilities in order for it to be possible to compare the levels of fluorescence of the various conditions to each other.

Cc1ncc(CO)c(CNC(=O)/C=C/c2ccc(O)c(O)c2)c1O [Compound (Ia)]
Cellular viability during the exposure or non-exposure to cadmium (optical density) [1]: 1.28 optical density | Morphology of the epidermis after UVA irradiation (histological analysis) [2]: totally protected | Cellular viability on NHEK (Optical density) [3]: 2.589 Optical density | Assay of the fluorescence with H2DCFDA after irradiation of NHEKs with UVAs ([4]; 24 h incubation, (Ia) 3 ppm, Trolox 20 ppm, Quercetin 18 ppm, UVA 10 J/cm2, normalised to viability (MTS), CTL UVA 289687.6, CTL without stress 16441.9): 198588.8 | reduction of the generation of intracellular H2O2 after UVA stress ([4]; NHEK, compound 3 ppm, single UVA stress, FIG. 1): 40%
